≈ marks a conversion by molar mass, not a printed value. Read-outs that look alike come from different tables or passages of the source.
Legend:
[1] = tested on: Actinomyces naeslundii (ATCC 19039); assay: Microdilution MIC/MMC (INT) against Actinomyces naeslundii; format: cell-based; settings: A.n, Gram +ve, table title says mg/mL; for MBC: MMC in title
Method: (§1) The microorganisms used in this study include Actinomyces naeslundii (ATCC 19039), Actinomyces israelii (ATCC 10049), Aggregatibacter actinomycetemcomitans (ATCC 33384), Candida albicans (Med I), Porphyromonas gingivalis (ATCC 33277), Prevotella intermedia (ATCC 25611), and Streptococcus mutans (ATCC 25175). Bacteria were grown in the Casein-peptone Soy Agar medium (CASO) (Merck SA (Pty) Ltd.) under anaerobic conditions in a jar with anaerocult A (Merck SA (Pty) Ltd.), at 37°C for 48 hours. Sabouraud Dextrose Agar medium (SDA) (Merck SA (Pty) Ltd.) was used for the culturing of Candida albicans and incubated at 37°C for 24 hours under aerobic conditions. Subculturing was done once weekly.
(§2) The microdilution technique using 96-well microplates was used to obtain the MIC and MMC values of the crude extract against microorganisms under study. The extract was serially diluted in the 96-well plate with 48 hours old microorganisms (5 × 10^6 CFU/mL) grown at 37°C and the final concentration of extract and positive control (CHX) ranged from 25.0 mg/mL to 0.8 mg/mL. Microbial growth was indicated by adding 40 μL of (0.2 mg/mL) p-iodonitrotetrazolium violet (INT) (Sigma-Aldrich, South Africa) to microplate wells and incubated at 37°C for 48 hours. MIC was defined as the lowest concentration that inhibited the colour change of INT. […] These suspensions were reincubated at 37°C for 48 hours. The MMC was determined as the lowest concentration of extract which inhibited 100% growth of microorganisms.

[2] = tested on: Prevotella intermedia (ATCC 25611); assay: Microdilution MIC/MMC (INT) against Prevotella intermedia; format: cell-based; settings: P.i, Gram –ve, table title says mg/mL; for MBC: MMC in title
Method: as §1, §2

[3] = tested on: Porphyromonas gingivalis (ATCC 33277); assay: Microdilution MIC/MMC (INT) against Porphyromonas gingivalis; format: cell-based; settings: P.g, Gram –ve, table title says mg/mL; for MBC: MMC in title
Method: as §1, §2

[4] = tested on: Aggregatibacter actinomycetemcomitans (ATCC 33384); assay: Microdilution MIC/MMC (INT) against Aggregatibacter actinomycetemcomitans; format: cell-based; settings: A.a, Gram –ve, table title says mg/mL; for MBC: MMC in title
Method: as §1, §2

Candida albicans (Med I) = assay: Microdilution MIC/MMC (INT) against Candida albicans; format: cell-based; settings: C.a, Yeast, table title says mg/mL; for MBC: MMC in title
Method: as §1, §2

[5] = tested on: Actinomyces israelii (ATCC 10049); assay: Microdilution MIC/MMC (INT) against Actinomyces israelii; format: cell-based; settings: A.i, Gram +ve, table title says mg/mL; for MBC: MMC in title
Method: as §1, §2

oral microorganisms = assay: Microdilution MIC/MMC, summary over tested microbial species; format: cell-based; settings: against A. israelii and A. naeslundii
Method: as §1, §2

[6] = DPPH free radical scavenging assay; format: biochemical; settings: 37°C, 30 min, 517 nm
Method: The free radical scavenging activity was measured using 1, 1 diphenyl-2-picryl-hydraxyl (DPPH) assay with slight modifications. The ethanol extract of A. afra and Vitamin C (positive control) 1000 μg/mL (20 μL) was added in the first three wells of a 96-well plate containing 200 μL of distilled water to make up final concentration of 100 μg/mL and the remaining wells were filled with 110 μL of distilled water. The first raws containing the extract/compounds were serially diluted to wells which contain 110 μL of distilled water, and later, 90 μL of methanolic solution of DPPH ([…]) was added to all the wells. The final concentrations of the extract/compounds ranged from 100 to 0.8 μg/mL. The plates were incubated at 37°C for 30 min and the absorbance was measured at 517 nm using the ELISA plate reader. The percent radical scavenging activity by A. afra was determined by comparison with ethanol (blank). The inhibition ratio was calculated as follows: % DPPH radical-scavenging = (AC-AS)/AC × 100, where AC is absorbance of the control solution (containing only DPPH solution), and AS is the absorbance of the sample in DPPH solution. The percentage of DPPH radical-scavenging was plotted against the plant extract/compounds concentrations (μg/mL) to determine the concentration of extract/compound required to scavenge DPPH by 50% (EC50).

[7] = tested on: murine melanoma B16 cell line; parameters: method as in PMID 15363977; settings: B16 cells; cited from earlier work
[8] = XTT cell proliferation (cytotoxicity) assay on McCoy cells; format: cell-based; settings: mouse; McCoy cells, XTT, 48 h; read-out: IC50 (cytotoxicity)
Method: (§3) Extract and compounds were dissolved in dimethyl sulfoxide (DMSO) and stored at −20°C. All tested compounds were diluted to the final concentration with RPMI 1640 and control cultures were diluted with 0.1% DMSO.
(§4) McCoy cells were maintained in monolayer culture at 37°C and 5% CO2 with 10% […] Medium, 10 μg/mL of penicillin, 10 μg/mL, streptomycin, 40 μg/mL gentamycin, and 0.25 μg/mL fungizone.
(§5) A microtiter plate with McCoy cells was used for testing all the ethanol extracts for cytotoxicity following the method of [26]. Cytotoxicity was measured by the XTT (sodium 3′-[1-(phenyl amino-carbonyl)-3,4-tetrazolium]-bis-[4-methoxy-6-nitro] benzene sulfonic acid hydrate) method using a cell proliferation kit II (Roche Diagnostics GmbH). Hundred microlitres of McCoy cells (1 × 10^5 mL) was seeded onto a microtiter plate and incubated for 24 h to allow the cells to attach to the bottom of the plate. Dilution series were made of the extract and compound and the various concentrations (400 to 3.1 μg/mL) were added to the microtitre plate and incubated for 48 h. The XTT reagents were added to a final concentration of 0.3 mg/mL and the cells were incubated for 1-2 hours. The positive drug control (Zearalenone) at concentrations range of (10 μg/mL to 0.6 μg/mL) was included in the assay. After incubation the absorbance of the colour was spectrophotometrically quantified using an ELISA plate reader, which measured the optical density at 490 nm with a reference wavelength of 690 nm. The assay was carried out in triplicate.

McCoy fibroblast cells = assay: as above; format: cell-based; settings: McCoy cells, XTT, 48 h
Method: as §3, §4, §5

[9] = Actinomyces naeslundii, ATCC19039
[10] = Prevotella intermedia, ATCC25611
[11] = Porphyromonas gingivalis, ATCC33277
[12] = Aggregatibacter actinomycetemcomitans, ATCC33384
[13] = Actinomyces israelii, ATCC10049, read-out: MIC

Compound | MBC [2, 10] [µg/mL] | MBC [3, 11] [µg/mL] | MBC [4, 12] [µg/mL] | MIC [4, 12] [µg/mL] | MBC (Candida albicans (Med I)) [µg/mL] | MIC (Candida albicans (Med I)) [µg/mL] | MIC [5, 13] [µg/mL] | DPPH scavenging IC50 [6] [µg/mL] | MBC [1] [µg/mL] | MIC [1] [µg/mL] | MBC [2] [µg/mL] | MIC [2] [µg/mL] | MBC [3] [µg/mL] | MIC [3] [µg/mL] | MBC [4] [µg/mL] | MIC [4] [µg/mL] | MBC [5] [µg/mL] | MIC [5] [µg/mL] | also measured
C[C@H]1[C@H](C)CC[C@]2(C)CC[C@]3(C)C(=CC[C@@H]4[C@@]5(C)CC[C@H](O)C(C)(C)[C@@H]5CC[C@]43C)[C@H]12 [compound 4, α-amyrin] | > 1000 | > 1000 | > 1000 | > 1000 | > 1000 | > 1000 | > 1 |  |  |  |  |  |  |  |  |  |  |  | MBC ([1]; Actinomyces naeslundii, ATCC19039, read-out: MBC): > 1 µg/mL; MIC [1, 9]: 1000 µg/mL (≈ 2340 µM); MIC ([2]; Prevotella intermedia, ATCC25611, read-out: MIC): > 1 µg/mL; MIC ([3]; Porphyromonas gingivalis, ATCC33277, read-out: MIC): > 1 µg/mL; MBC ([5]; Actinomyces israelii, ATCC10049, read-out: MBC): > 1 µg/mL
C=C(C)[C@@H]1CC[C@]2(C(=O)O)CC[C@]3(C)[C@H](CC[C@@H]4[C@@]5(C)CC[C@H](O)C(C)(C)[C@@H]5CC[C@]43C)[C@@H]12 [compound 6, betulinic acid] | > 1000 | > 1000 | > 1000 | > 1000 | > 1000 | > 1000 | 1 (≈ 2.19 µM) | 2.42 |  |  |  |  |  |  |  |  |  |  | MBC [1, 9]: 500 µg/mL (≈ 1090 µM); MIC ([1]; Actinomyces naeslundii, ATCC19039, read-out: MIC): 0.25 µg/mL (≈ 0.547 µM); MIC (oral microorganisms; read-out: lowest MIC and MMC value): 250 µg/mL (≈ 547 µM); MIC [2, 10]: 1000 µg/mL (≈ 2190 µM); MIC [3, 11]: 1000 µg/mL (≈ 2190 µM); MBC ([5]; Actinomyces israelii, ATCC10049): 1000 µg/mL (≈ 2190 µM); IC50 apoptotic effects [7]: 22.5 µg/mL (≈ 49.3 µM); IC50 at 48 h [8]: 31 µg/mL (≈ 67.8 µM)
O=C1O[C@H]([C@@H](O)CO)C(O)=C1O [vitamin C, reference compound] |  |  |  |  |  |  |  | 1.22 |  |  |  |  |  |  |  |  |  |  | 
phytol [compound 5] |  |  |  |  | > 1000 | > 1000 |  |  | >1.0 | >1.0 | > 1000 | >1.0 | > 1000 | >1.0 | > 1000 | > 1000 | >1.0 | >1.0 | 
scopoletin [compound 3] |  |  |  |  | > 1000 | > 1000 |  | 1.24 | >1.0 | 1000 | 1.0 | 500 | > 1000 | >1.0 | > 1000 | > 1000 | 500 | 250 | lowest MIC and MMC value (oral microorganisms): 250 µg/mL; IC50 (cytotoxicity) (McCoy fibroblast cells): 132.5 µg/mL
